Test results reported in patent US20070141129A1, “Wound care product comprising a substance which inhibits the growth of bacteria in wounds” (priority 2003, published 2007).
“Also recorded” adds a separate entry of the source.

Tests used:
P. aeruginosa = experiment: growth of P. aeruginosa in BHI broth with added xylitol; assay type: cell-based, Pseudomonas aeruginosa; conditions: xylitol added to BHI, 1-10% (FIG. 5)
Procedure: (§1) The bacterial strains were stored at −70° C. Immediately prior to each experiment, these strains were taken out and placed on a blood plate and incubated overnight at 35° C. The same incubator was used in all the experiments. After that, a loop of the colonies which had grown was incubated in brain heart infusion (BHI) broth for 18 hours. 100 μl of this broth were inoculated into 3-5 ml of fresh BHI broth with or without the addition of xylitol. Different contents of xylitol were added. As is evident from FIGS. 1-5, the contents of xylitol were 1%, 2.5%, 5% and 10%.
(§2) The transmittance or translucency was measured from hour 0, and after that every hour, for 6 hours on a Biolog turbidimeter from the company Biolog Inc., Hayward, Calif., USA. The growth of bacteria reduces the translucency, i.e. the lower the transmittance the greater the growth of the bacteria.
(§3) At 0 hours and at 6 hours, 100 μl of the broth were cultured and the number of live bacteria was counted. The transmittance value and the quantity of bacteria (colony forming units/ml) in tubes with and without xylitol were then compared.

bacteria = conditions: bacteriological tests; cited from earlier work
group B streptococci = experiment: growth of group B streptococci in BHI broth with added xylitol; assay type: cell-based; conditions: xylitol added to BHI, 1-10% (FIG. 3)
Procedure: as §1, §2, §3

group G streptococci = experiment: growth of group G streptococci in BHI broth with added xylitol; assay type: cell-based; conditions: xylitol added to BHI, 1-10% (FIG. 4)
Procedure: as §1, §2, §3

[1] = test system: S. aureus (multiresistant), MRSA strain; experiment: growth of multiresistant S. aureus (MRSA strain) in BHI broth with added xylitol (transmittance); assay type: cell-based, Staphylococcus aureus
Procedure: as §1, §2, §3

[2] = test system: intestinal bacteria which cause diarrhoea, bacteria which give rise to ear inflammations, yeast fungus; conditions: cited from earlier work
[3] = test system: S. aureus (including MRSA), group A, B, C and G streptococci, enterococci (including VRE) and Pseudomonas aeruginosa; experiment: growth of wound infection bacteria in nutrient-rich medium with added xylitol; assay type: cell-based; conditions: xylitol (1-10%) in nutrient-rich medium
Procedure: as §1, §2, §3

VRE = experiment: growth of VRE with xylitol; assay type: cell-based, vancocin-resistant enterococci
Procedure: as §1, §2, §3

S. aureus [4] = conditions: cited from earlier work
[5] = test system: beta-haemolytic streptococci, including group B streptococci; experiment: growth of beta-haemolytic streptococci with xylitol; assay type: cell-based
Procedure: as §1, §2, §3

[6] = toxicity assessed as so low; cited from earlier work
[7] = test system: epithelial cells in the skin; conditions: cited from earlier work
alpha-streptococci = conditions: oral flora; uptake via fructose phosphotransferase system; cited from earlier work
S. aureus [8] = experiment: growth of S. aureus in BHI broth with added xylitol (transmittance); assay type: cell-based, Staphylococcus aureus
Procedure: as §1, §2, §3

[9] = children, clinical study; cited from earlier work

OC[C@@H](O)[C@H](O)[C@@H](O)CO [xylitol]
inhibition of growth of the bacteria (P. aeruginosa): effective in combating the growth; also recorded: very effective in inhibiting the growth
mutagenic properties (increase in natural mutation frequency) (bacteria): No mutagenic properties
inhibition of growth of the bacteria (group B streptococci): effectively inhibited
inhibition of growth of the bacteria (group G streptococci): very effective in inhibiting the growth
translucency after 6 hours ([1]; 10% added xylitol, 6 hours, without xylitol approx. 30% (FIG. 2)): more than 70%
inhibition of growth of the bacteria ([1]; xylitol added to nutrient solution, 1-10%): effective in combating the growth; also recorded: inhibited very effectively
adherence of bacteria [2]: decreases the adherence
reduction of growth, factor [3]: ≤ 1000
inhibition of growth of the bacteria (VRE): effective in combating the growth
production of glycocalyx (S. aureus [4]): decrease
effect against the bacteria [5]: also effective
limit value for an acceptable daily intake [6]: no limit value
absorption by epithelial cells in the skin [7]: only absorbed to a very slight extent
growth of alpha-streptococci (alpha-streptococci): inhibited
bacterial growth after 2 hours (S. aureus [8]; BHI containing 10% added xylitol, 2 hours (FIG. 1)): hardly any bacterial growth at all
translucency (transmittance) after 6 hours (S. aureus [8]; BHI nutrient solution, 10% xylitol added, 6 hours, without xylitol 20 (FIG. 1)): more than 60%
reduction of the number of ear inflammations [9]: up to 40%
